Active and inactive are the calls of the source.

Test [1] addresses G-protein coupled receptor 55 (Homo sapiens, UniProt Q9Y2T6). The test is described as follows: blockers of GPR55 signalling, imaged – imaging, image-based, counter-screen for GPR35 antagonist project, SAR follow-up (AID 2397). In kind it is functional. In general terms: The purpose of a counterscreen is to sort out artefacts and off-target activity.
The target of test [2] is T1, Nucleotide-binding oligomerization domain-containing protein 1 (Homo sapiens, UniProt Q9Y239).
T1 sequence (Q9Y239 whole entry): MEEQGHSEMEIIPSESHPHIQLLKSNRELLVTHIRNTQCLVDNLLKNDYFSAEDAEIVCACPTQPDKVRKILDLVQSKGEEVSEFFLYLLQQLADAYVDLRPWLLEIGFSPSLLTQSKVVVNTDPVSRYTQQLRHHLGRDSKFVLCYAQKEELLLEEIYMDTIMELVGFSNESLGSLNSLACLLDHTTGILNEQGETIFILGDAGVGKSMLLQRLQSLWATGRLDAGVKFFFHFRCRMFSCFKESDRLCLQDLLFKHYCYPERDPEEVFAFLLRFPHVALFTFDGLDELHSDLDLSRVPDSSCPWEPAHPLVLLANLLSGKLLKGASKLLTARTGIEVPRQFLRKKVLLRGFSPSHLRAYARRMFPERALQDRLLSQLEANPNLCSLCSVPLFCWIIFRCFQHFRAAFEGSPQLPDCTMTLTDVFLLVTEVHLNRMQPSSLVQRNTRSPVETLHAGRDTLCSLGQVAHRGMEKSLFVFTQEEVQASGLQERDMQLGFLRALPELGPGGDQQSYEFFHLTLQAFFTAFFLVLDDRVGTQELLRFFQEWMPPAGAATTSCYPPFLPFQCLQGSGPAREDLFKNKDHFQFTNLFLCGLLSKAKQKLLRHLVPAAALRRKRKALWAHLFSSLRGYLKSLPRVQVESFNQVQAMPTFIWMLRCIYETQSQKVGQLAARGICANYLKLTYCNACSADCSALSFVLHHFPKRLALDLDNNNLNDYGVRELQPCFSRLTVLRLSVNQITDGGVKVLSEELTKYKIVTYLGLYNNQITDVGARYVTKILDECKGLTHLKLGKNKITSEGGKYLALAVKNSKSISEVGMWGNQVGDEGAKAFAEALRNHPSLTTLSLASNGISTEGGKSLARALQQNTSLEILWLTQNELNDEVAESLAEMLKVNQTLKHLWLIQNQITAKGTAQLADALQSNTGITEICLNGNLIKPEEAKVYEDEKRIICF
The test can be described thus: SAR analysis of compounds that inhibit NOD1 - Set 3. [Related pubchem assays (depositor defined):AID1566, AID1575, AID1578, AID1849, AID1852, AID2333, AID2335, AID2466]. In kind it is functional.

Test [3] addresses T2, Interleukin-8 (Homo sapiens, UniProt P10145).
T2 sequence (P10145 whole entry): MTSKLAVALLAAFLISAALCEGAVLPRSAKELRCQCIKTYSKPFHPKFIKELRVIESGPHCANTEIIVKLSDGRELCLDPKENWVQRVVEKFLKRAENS
The test can be described thus: SAR analysis of Tumor necrosis factor alpha (TNF-alpha) induced IL-8 secretion in MCF-7/NOD1 cells - Set 2. [Related pubchem assays (depositor defined):AID1575, AID2250, AID2260]. In kind it is functional, cell-based.

The target of test [4] is T2, Interleukin-8. The test can be described thus: SAR analysis of GM-Tri-DAP induced IL-8 secretion in MCF-7/NOD1 cells - Set 2. [Related pubchem assays (depositor defined):AID1575, AID1578, AID2333]. In kind it is functional, cell-based.
The target of test [5] is T1, Nucleotide-binding oligomerization domain-containing protein 1. The test is described as follows: SAR analysis of compounds that inhibit NOD1 - Set 2. [Related pubchem assays (depositor defined):AID1566, AID1575, AID1578, AID1849, AID1852, AID2333, AID2335, AID2798]. In kind it is functional.
In test [6] the target is T3, Nucleotide-binding oligomerization domain-containing protein 2 (Homo sapiens, UniProt Q9HC29). The test is described as follows: inhibition of MDP-driven NOD2 NF-kB reporter – cell-based, set 3, SAR follow-up (AID 2799). In kind it is functional.
Test [7] relates to HEK293. The test is described as follows: SAR analysis of compounds that are cytotoxic to HEK293 - Set 2. [Related pubchem assays (depositor defined):AID1575, AID1578, AID1849, AID2001, AID2333, AID2334, AID2335, AID2337, AID2800]. In kind it is functional, cell-based. As to conditions: Homo sapiens.
The target of test [8] is T1, Nucleotide-binding oligomerization domain-containing protein 1. The test is described as follows: SAR analysis of NF-kappaB dependent luciferase using DAP as an inducer - Set 2. [Related pubchem assays (depositor defined):AID1566, AID1575, AID1578, AID1579, AID1849, AID1852, AID2264]. In kind it is functional.
Test [9] deals with T3, Nucleotide-binding oligomerization domain-containing protein 2. The test can be described thus: inhibition of NOD2 signaling – set 2, SAR follow-up (AID 2475). In kind it is functional.
In test [10] the test system is HEK293. The test can be described thus: SAR analysis of compounds that are cytotoxic to HEK293 - Set 3. [Related pubchem assays (depositor defined):AID1575, AID1578, AID1848, AID1849, AID2001, AID2333, AID2334, AID2335, AID2337, AID2469]. As to conditions: Homo sapiens. In kind it is functional, cell-based.
The target in test [11] is Tumor necrosis factor (Homo sapiens, UniProt P01375). The test is described as follows: analog potency on TNFa NF-kB signaling – cell-based, set 3, SAR follow-up (AID 2801). In kind it is functional.
For test [12], the target named is Lysine-specific demethylase 4C (Homo sapiens, UniProt Q9H3R0). The test is described as follows: inhibition of JMJD2C H3K9me3 demethylation – biochemical, DELFIA europium, cherry-picked samples, dose response (AID 488835). In kind it is functional.
Chain of Lysine-specific demethylase 4C (Q9H3R0 whole entry): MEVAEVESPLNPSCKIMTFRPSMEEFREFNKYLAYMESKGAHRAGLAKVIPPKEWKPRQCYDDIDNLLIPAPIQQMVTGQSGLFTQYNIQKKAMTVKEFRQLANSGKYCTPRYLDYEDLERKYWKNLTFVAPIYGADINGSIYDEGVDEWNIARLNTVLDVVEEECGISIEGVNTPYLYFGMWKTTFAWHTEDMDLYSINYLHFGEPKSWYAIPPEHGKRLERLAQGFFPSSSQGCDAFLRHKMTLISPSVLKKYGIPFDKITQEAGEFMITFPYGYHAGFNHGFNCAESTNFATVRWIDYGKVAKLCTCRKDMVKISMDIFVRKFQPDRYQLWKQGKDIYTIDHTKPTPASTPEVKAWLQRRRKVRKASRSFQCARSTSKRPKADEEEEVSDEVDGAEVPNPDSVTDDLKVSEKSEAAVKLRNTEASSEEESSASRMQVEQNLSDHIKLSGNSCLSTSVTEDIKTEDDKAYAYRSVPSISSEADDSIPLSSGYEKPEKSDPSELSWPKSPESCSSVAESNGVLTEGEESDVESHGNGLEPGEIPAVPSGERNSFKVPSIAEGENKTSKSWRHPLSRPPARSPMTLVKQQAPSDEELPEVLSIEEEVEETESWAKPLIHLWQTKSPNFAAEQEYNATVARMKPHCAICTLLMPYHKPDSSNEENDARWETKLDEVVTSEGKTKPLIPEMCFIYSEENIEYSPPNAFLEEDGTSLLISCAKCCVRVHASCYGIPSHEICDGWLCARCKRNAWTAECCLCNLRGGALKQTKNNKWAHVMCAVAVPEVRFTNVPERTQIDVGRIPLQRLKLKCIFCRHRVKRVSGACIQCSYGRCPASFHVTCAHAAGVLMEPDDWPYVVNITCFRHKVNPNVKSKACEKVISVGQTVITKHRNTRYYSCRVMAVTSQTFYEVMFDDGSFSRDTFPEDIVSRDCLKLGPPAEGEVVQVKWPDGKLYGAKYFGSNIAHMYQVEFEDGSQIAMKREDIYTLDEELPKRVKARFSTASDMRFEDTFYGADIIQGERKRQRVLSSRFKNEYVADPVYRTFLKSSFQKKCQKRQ

T3 sequence (Q9HC29 whole entry, the tested form may be a part): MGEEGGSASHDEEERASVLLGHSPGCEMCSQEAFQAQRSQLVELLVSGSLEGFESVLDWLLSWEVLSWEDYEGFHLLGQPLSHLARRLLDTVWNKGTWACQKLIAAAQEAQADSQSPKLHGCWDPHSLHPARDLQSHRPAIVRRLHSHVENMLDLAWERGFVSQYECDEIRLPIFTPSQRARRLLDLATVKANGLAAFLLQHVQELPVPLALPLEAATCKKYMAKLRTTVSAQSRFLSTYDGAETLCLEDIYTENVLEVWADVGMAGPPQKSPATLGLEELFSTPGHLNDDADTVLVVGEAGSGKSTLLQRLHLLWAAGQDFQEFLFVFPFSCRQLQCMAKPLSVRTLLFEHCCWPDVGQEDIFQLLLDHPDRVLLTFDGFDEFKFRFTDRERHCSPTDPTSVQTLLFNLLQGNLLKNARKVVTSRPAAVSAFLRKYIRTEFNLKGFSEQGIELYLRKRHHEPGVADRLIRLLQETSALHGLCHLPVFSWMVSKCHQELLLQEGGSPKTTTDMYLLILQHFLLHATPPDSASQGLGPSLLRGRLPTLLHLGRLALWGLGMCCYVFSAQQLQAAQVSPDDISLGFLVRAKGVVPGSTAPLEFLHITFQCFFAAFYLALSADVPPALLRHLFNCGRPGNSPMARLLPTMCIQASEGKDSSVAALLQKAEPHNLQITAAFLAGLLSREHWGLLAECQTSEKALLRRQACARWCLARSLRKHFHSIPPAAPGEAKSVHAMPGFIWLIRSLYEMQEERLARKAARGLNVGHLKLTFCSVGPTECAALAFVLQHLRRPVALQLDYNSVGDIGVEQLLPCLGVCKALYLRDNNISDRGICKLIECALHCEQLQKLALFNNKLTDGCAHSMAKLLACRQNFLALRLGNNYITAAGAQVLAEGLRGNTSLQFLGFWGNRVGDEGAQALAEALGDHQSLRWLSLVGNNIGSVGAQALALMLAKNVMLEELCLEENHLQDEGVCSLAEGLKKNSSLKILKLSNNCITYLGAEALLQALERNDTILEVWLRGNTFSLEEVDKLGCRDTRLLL
Chain of Tumor necrosis factor (P01375 whole entry): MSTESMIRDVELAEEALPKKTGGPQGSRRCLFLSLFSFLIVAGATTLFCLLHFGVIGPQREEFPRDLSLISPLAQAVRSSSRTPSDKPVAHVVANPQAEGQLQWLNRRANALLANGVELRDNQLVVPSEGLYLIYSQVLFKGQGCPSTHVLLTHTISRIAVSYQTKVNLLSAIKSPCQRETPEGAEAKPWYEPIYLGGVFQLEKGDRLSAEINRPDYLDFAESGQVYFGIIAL
Chain of G-protein coupled receptor 55 (Q9Y2T6 whole entry, the tested form may be a part): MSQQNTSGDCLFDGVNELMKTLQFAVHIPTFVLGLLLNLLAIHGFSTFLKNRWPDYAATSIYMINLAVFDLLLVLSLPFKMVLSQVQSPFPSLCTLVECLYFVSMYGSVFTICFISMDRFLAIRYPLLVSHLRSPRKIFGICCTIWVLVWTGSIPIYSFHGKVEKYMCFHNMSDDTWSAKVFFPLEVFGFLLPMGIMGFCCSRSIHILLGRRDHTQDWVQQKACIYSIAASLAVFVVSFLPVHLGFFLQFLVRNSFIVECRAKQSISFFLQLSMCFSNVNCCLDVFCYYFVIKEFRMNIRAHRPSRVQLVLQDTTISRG

Regarding `Cc1c(C(=O)Nc2ccc3c(c2)OCCO3)sc2ncnc(O)c12`, the IC50 in test [1] is > 32 µM (inactive).
`COCCn1c(SCCCc2ccccc2)nc2c1c(=O)[nH]c(=O)n2C`: the IC50 in [2] is > 20 µM (inactive); in test [3], > 25 µM (inactive); in [4], > 25 µM (inactive); in test [5], > 20 µM (inactive); in [6], > 20 µM (inactive); in [7], > 20 µM (inactive). Moreover, the IC50 in test [8] is > 25 µM (inactive); in [9] it was > 20 µM (inactive); in test [10], > 20 µM (inactive); in test [11], > 20 µM (inactive).
With `Nc1c(O)nc(O)nc1C(=O)OCC(=O)Nc1ccc(Cl)cc1[N+](=O)[O-]`, the AC50 in [12] is 8.98 µM (active).

In general, IC50 refers to the point on the concentration scale where inhibition reaches its midpoint. As usually defined, the AC50 is the concentration giving half of the maximal activity seen.

The values above are taken from ChEMBL document CHEMBL1201862, “PubChem BioAssay data set” (2004).
